In ChEMBL document CHEMBL1143523, “Semi-synthesis and biological evaluation of analogues of UK-2A, a novel antifungal antibiotic from Streptomyces sp. 517-02” (2005):

How the values were obtained:
Format in all cases: functional
[1] = system: Saccharomyces cerevisiae; test: Zone of inhibition for Saccharomyces cerevisiae IFO 0203 at 0.025 ug/disc by conventional paper disk method
[2] = system: Saccharomyces cerevisiae; test: Zone of inhibition for Saccharomyces cerevisiae IFO 0203 at 0.125 ug/disc by conventional paper disk method
[3] = system: Saccharomyces cerevisiae; test: Zone of inhibition for Saccharomyces cerevisiae IFO 0203 at 0.25 ug/disc by conventional paper disk method
[4] = system: Saccharomyces cerevisiae; test: Zone of inhibition for Saccharomyces cerevisiae IFO 0203 at 0.05 ug/disc by conventional paper disk method

Question: Which zone of inhibition at 0.025 µg/disc [1] does the source give for `CC(C)C(=O)O[C@H]1[C@H](C)OC(=O)[C@@H](NC(=O)c2cccc(N(C)C)c2O)COC(=O)[C@@H]1Cc1ccccc1` here?
Answer: Its zone of inhibition at 0.025 µg/disc is 8 mm.

Question: What about the zone of inhibition at 0.125 µg/disc [2] of the same molecule?
Answer: The zone of inhibition at 0.125 µg/disc was 12 mm.

Question: And the zone of inhibition at 0.25 µg/disc [3]?
Answer: The zone of inhibition at 0.25 µg/disc was 14 mm.

Question: What about the zone of inhibition at 0.05 µg/disc [4] of the same molecule?
Answer: The zone of inhibition at 0.05 µg/disc was 8 mm.

Question: What does the source list for `CC(C)C(=O)O[C@H]1[C@H](C)OC(=O)[C@@H](NC(=O)c2ccccc2O)COC(=O)[C@@H]1Cc1ccccc1`?
Answer: zone of inhibition at 0.025 µg/disc [1]: 8 mm; zone of inhibition at 0.125 µg/disc [2]: 11 mm; zone of inhibition at 0.25 µg/disc [3]: 12 mm; zone of inhibition at 0.05 µg/disc [4]: 8 mm

Question: What does the source list for `COc1ccnc(C(=O)N[C@H]2COC(=O)[C@H](Cc3ccc(N)cc3)[C@@H](OC(=O)C(C)C)[C@H](C)OC2=O)c1O`?
Answer: zone of inhibition at 0.025 µg/disc [1]: 0 mm; zone of inhibition at 0.125 µg/disc [2]: 8 mm; zone of inhibition at 0.25 µg/disc [3]: 10 mm; zone of inhibition at 0.05 µg/disc [4]: 0 mm

Question: With `COc1ccnc(C(=O)N[C@H]2COC(=O)[C@H](Cc3ccccc3)[C@@H](OC(=O)C(C)C)[C@H](C)OC2=O)c1OC(=O)CCCCCC(=O)Oc1ccccc1` as the molecule, how does the zone of inhibition at 0.025 µg/disc [1] read?
Answer: Its zone of inhibition at 0.025 µg/disc is 8 mm.

Question: And the zone of inhibition at 0.125 µg/disc [2]?
Answer: Its zone of inhibition at 0.125 µg/disc is 15 mm.

Question: What about the zone of inhibition at 0.25 µg/disc [3] of the same molecule?
Answer: Its zone of inhibition at 0.25 µg/disc is 18 mm.

Question: What about the zone of inhibition at 0.05 µg/disc [4] of the same molecule?
Answer: Its zone of inhibition at 0.05 µg/disc is 10 mm.

Question: What does the source list for `COc1ccnc(C(=O)N[C@H]2COC(=O)[C@H](Cc3ccccc3)[C@@H](OC(=O)C(C)C)[C@H](C)OC2=O)c1OC`?
Answer: zone of inhibition at 0.025 µg/disc [1]: 0 mm; zone of inhibition at 0.125 µg/disc [2]: 0 mm; zone of inhibition at 0.25 µg/disc [3]: 0 mm; zone of inhibition at 0.05 µg/disc [4]: 0 mm

Question: Which zone of inhibition at 0.025 µg/disc [1] does the source give for `COc1ccnc(C(=O)N[C@H]2COC(=O)[C@H](Cc3ccccc3)[C@@H](OC(=O)C(C)C)[C@H](C)OC2=O)c1O` here?
Answer: Its zone of inhibition at 0.025 µg/disc is 19 mm.

Question: And the zone of inhibition at 0.125 µg/disc [2]?
Answer: Its zone of inhibition at 0.125 µg/disc is 26 mm.

Question: And the zone of inhibition at 0.25 µg/disc [3]?
Answer: The zone of inhibition at 0.25 µg/disc was 26 mm.

Question: What about the zone of inhibition at 0.05 µg/disc [4] of the same molecule?
Answer: Its zone of inhibition at 0.05 µg/disc is 22 mm.

Question: Which zone of inhibition at 0.025 µg/disc [1] does the source give for `CC(C)C(=O)O[C@H]1[C@H](C)OC(=O)[C@@H](NC(=O)c2nc3ccccc3nc2O)COC(=O)[C@@H]1Cc1ccccc1` here?
Answer: The zone of inhibition at 0.025 µg/disc was 14 mm.

Question: What about the zone of inhibition at 0.125 µg/disc [2] of the same molecule?
Answer: The zone of inhibition at 0.125 µg/disc was 20 mm.

Question: And the zone of inhibition at 0.25 µg/disc [3]?
Answer: Its zone of inhibition at 0.25 µg/disc is 24 mm.

Question: And the zone of inhibition at 0.05 µg/disc [4]?
Answer: The zone of inhibition at 0.05 µg/disc was 18 mm.

Question: What does the source list for `COc1ccnc(C(=O)N[C@H]2COC(=O)[C@H](Cc3ccc(N(C)C)cc3)[C@@H](OC(=O)C(C)C)[C@H](C)OC2=O)c1O`?
Answer: zone of inhibition at 0.025 µg/disc [1]: 0 mm; zone of inhibition at 0.125 µg/disc [2]: 15 mm; zone of inhibition at 0.25 µg/disc [3]: 19 mm; zone of inhibition at 0.05 µg/disc [4]: 11 mm

Question: With `CC(C)C(=O)O[C@H]1[C@H](C)OC(=O)[C@@H](NC(=O)c2cccc(NC=O)c2O)COC(=O)[C@@H]1Cc1ccccc1` as the molecule, how does the zone of inhibition at 0.025 µg/disc [1] read?
Answer: The zone of inhibition at 0.025 µg/disc was 8 mm.

Question: And the zone of inhibition at 0.125 µg/disc [2]?
Answer: The zone of inhibition at 0.125 µg/disc was 16 mm.

Question: What about the zone of inhibition at 0.25 µg/disc [3] of the same molecule?
Answer: The zone of inhibition at 0.25 µg/disc was 17 mm.

Question: And the zone of inhibition at 0.05 µg/disc [4]?
Answer: Its zone of inhibition at 0.05 µg/disc is 12 mm.

Question: `COc1ccnc(C(=O)N[C@H]2COC(=O)[C@H](Cc3ccc(NC=O)cc3)[C@@H](OC(=O)C(C)C)[C@H](C)OC2=O)c1O` was tested. Which zone of inhibition at 0.025 µg/disc [1] did it give?
Answer: The zone of inhibition at 0.025 µg/disc was 0 mm.

Question: And the zone of inhibition at 0.125 µg/disc [2]?
Answer: The zone of inhibition at 0.125 µg/disc was 0 mm.

Question: What about the zone of inhibition at 0.25 µg/disc [3] of the same molecule?
Answer: Its zone of inhibition at 0.25 µg/disc is 0 mm.

Question: And the zone of inhibition at 0.05 µg/disc [4]?
Answer: The zone of inhibition at 0.05 µg/disc was 0 mm.

Question: `CC(C)C(=O)O[C@H]1[C@H](C)OC(=O)[C@@H](NC(=O)c2cccnc2O)COC(=O)[C@@H]1Cc1ccccc1` was tested. Which zone of inhibition at 0.025 µg/disc [1] did it give?
Answer: Its zone of inhibition at 0.025 µg/disc is 0 mm.

Question: What about the zone of inhibition at 0.125 µg/disc [2] of the same molecule?
Answer: Its zone of inhibition at 0.125 µg/disc is 16 mm.

Question: What about the zone of inhibition at 0.25 µg/disc [3] of the same molecule?
Answer: Its zone of inhibition at 0.25 µg/disc is 17 mm.

Question: And the zone of inhibition at 0.05 µg/disc [4]?
Answer: Its zone of inhibition at 0.05 µg/disc is 12 mm.

Question: For `COc1ccnc(C(=O)N[C@H]2COC(=O)[C@H](Cc3ccccc3)[C@@H](OC(=O)C(C)C)[C@H](C)OC2=O)c1OC(=O)CCCCCC(=O)O`, which zone of inhibition at 0.025 µg/disc [1] is on record?
Answer: The zone of inhibition at 0.025 µg/disc was 12 mm.

Question: And the zone of inhibition at 0.125 µg/disc [2]?
Answer: Its zone of inhibition at 0.125 µg/disc is 21 mm.

Question: What about the zone of inhibition at 0.25 µg/disc [3] of the same molecule?
Answer: The zone of inhibition at 0.25 µg/disc was 24 mm.

Question: And the zone of inhibition at 0.05 µg/disc [4]?
Answer: The zone of inhibition at 0.05 µg/disc was 16 mm.

Question: Which zone of inhibition at 0.025 µg/disc [1] does the source give for `COc1ccc(O)c(C(=O)N[C@H]2COC(=O)[C@H](Cc3ccccc3)[C@@H](OC(=O)C(C)C)[C@H](C)OC2=O)n1` here?
Answer: The zone of inhibition at 0.025 µg/disc was 16 mm.

Question: What about the zone of inhibition at 0.125 µg/disc [2] of the same molecule?
Answer: The zone of inhibition at 0.125 µg/disc was 24 mm.

Question: And the zone of inhibition at 0.25 µg/disc [3]?
Answer: The zone of inhibition at 0.25 µg/disc was 27 mm.

Question: What about the zone of inhibition at 0.05 µg/disc [4] of the same molecule?
Answer: The zone of inhibition at 0.05 µg/disc was 19 mm.

Question: Which zone of inhibition at 0.025 µg/disc [1] does the source give for `COc1ccnc(C(=O)N[C@H]2COC(=O)[C@H](Cc3ccc([N+](=O)[O-])cc3)[C@@H](OC(=O)C(C)C)[C@H](C)OC2=O)c1O` here?
Answer: Its zone of inhibition at 0.025 µg/disc is 12 mm.

Question: And the zone of inhibition at 0.125 µg/disc [2]?
Answer: The zone of inhibition at 0.125 µg/disc was 18 mm.

Question: And the zone of inhibition at 0.25 µg/disc [3]?
Answer: The zone of inhibition at 0.25 µg/disc was 20 mm.

Question: What about the zone of inhibition at 0.05 µg/disc [4] of the same molecule?
Answer: Its zone of inhibition at 0.05 µg/disc is 15 mm.

Question: What does the source list for `CCOC(=O)COc1c(OC)ccnc1C(=O)N[C@H]1COC(=O)[C@H](Cc2ccccc2)[C@@H](OC(=O)C(C)C)[C@H](C)OC1=O`?
Answer: zone of inhibition at 0.025 µg/disc [1]: 0 mm; zone of inhibition at 0.125 µg/disc [2]: 0 mm; zone of inhibition at 0.25 µg/disc [3]: 0 mm; zone of inhibition at 0.05 µg/disc [4]: 0 mm

Question: With `CCCC[C@H]1C(=O)O[C@H](C)[C@H](NC(=O)c2cccc(NC=O)c2O)C(=O)O[C@@H](C)[C@@H]1OC(=O)CC(C)C` [ANTIMYCIN A3] as the molecule, how does the zone of inhibition at 0.025 µg/disc [1] read?
Answer: Its zone of inhibition at 0.025 µg/disc is 16 mm.

Question: What about the zone of inhibition at 0.125 µg/disc [2] of the same molecule?
Answer: Its zone of inhibition at 0.125 µg/disc is 19 mm.

Question: And the zone of inhibition at 0.25 µg/disc [3]?
Answer: The zone of inhibition at 0.25 µg/disc was 26 mm.

Question: And the zone of inhibition at 0.05 µg/disc [4]?
Answer: Its zone of inhibition at 0.05 µg/disc is 18 mm.

Question: What does the source list for `COc1ccnc(C(=O)N[C@H]2COC(=O)[C@H](Cc3ccccc3)[C@@H](OC(=O)C(C)C)[C@H](C)OC2=O)c1OC(C)=O`?
Answer: zone of inhibition at 0.025 µg/disc [1]: 10 mm; zone of inhibition at 0.125 µg/disc [2]: 14 mm; zone of inhibition at 0.25 µg/disc [3]: 18 mm; zone of inhibition at 0.05 µg/disc [4]: 12 mm
